Key:
Test in all cases: relative viability (nuclei count vs DMSO), 5 days (fraction); higher = more cells survive
Ispinesib + Palbociclib = compound: Cc1ccc(C(=O)N(CCCN)[C@@H](c2nc3cc(Cl)ccc3c(=O)n2Cc2ccccc2)C(C)C)cc1 [Ispinesib] + CC(=O)c1c(C)c2cnc(Nc3ccc(N4CCNCC4)cn3)nc2n(C2CCCC2)c1=O [Palbociclib] (partner 0.5 µM)
Method in brief: (§1)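 Relative viability equals treated-well nuclei counts divided by vehicle-well nuclei counts. Counts came from 4× images of lung cancer cell lines grown in 1536-well plates for 5 days after pin-tool dosing on the day after seeding. Dosing used one drug alone or a fixed anchor-drug dose plus five library-drug doses (not always all listed) in √10 steps, and values are medians of duplicate plates.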

Linsitinib + Vorinostat = compound: C[C@]1(O)C[C@@H](c2nc(-c3ccc4ccc(-c5ccccc5)nc4c3)c3c(N)nccn32)C1 [Linsitinib] + O=C(CCCCCCC(=O)Nc1ccccc1)NO [Vorinostat] (partner 1 µM)
Method in brief: as §1

Ispinesib + Bortezomib = compound: Cc1ccc(C(=O)N(CCCN)[C@@H](c2nc3cc(Cl)ccc3c(=O)n2Cc2ccccc2)C(C)C)cc1 [Ispinesib] + CC(C)C[C@H](NC(=O)[C@H](Cc1ccccc1)NC(=O)c1cnccn1)B(O)O [Bortezomib] (partner 0.002 µM)
Method in brief: as §1

Linsitinib + Pemetrexed = compound: C[C@]1(O)C[C@@H](c2nc(-c3ccc4ccc(-c5ccccc5)nc4c3)c3c(N)nccn32)C1 [Linsitinib] + Nc1nc2[nH]cc(CCc3ccc(C(=O)N[C@@H](CCC(=O)O)C(=O)O)cc3)c2c(=O)[nH]1 [Pemetrexed] (partner 0.2 µM)
Method in brief: as §1

**Q.** UMC-11 was tested. Which relative viability (Ispinesib + Palbociclib; first compound 0.001 µM) did it give?
**A.** The relative viability was 0.336.

**Q.** And the relative viability (Ispinesib + Palbociclib; first compound 0.003162 µM)?
**A.** The relative viability was 0.311.

**Q.** And the relative viability (Ispinesib + Palbociclib; first compound 0.01 µM)?
**A.** The relative viability was 0.309.

**Q.** And the relative viability (Ispinesib + Palbociclib; first compound 0.03162 µM)?
**A.** The relative viability was 0.217.

**Q.** What about the relative viability (Ispinesib + Palbociclib; first compound 0.1 µM) of the same cell line?
**A.** Its relative viability is 0.237.

**Q.** And the relative viability (Linsitinib + Vorinostat; first compound 0.01 µM)?
**A.** Its relative viability is 0.369.

**Q.** And the relative viability (Linsitinib + Vorinostat; first compound 0.03162 µM)?
**A.** The relative viability was 0.389.

**Q.** And the relative viability (Linsitinib + Vorinostat; first compound 0.1 µM)?
**A.** Its relative viability is 0.357.

**Q.** And the relative viability (Linsitinib + Vorinostat; first compound 0.3162 µM)?
**A.** The relative viability was 0.217.

**Q.** What about the relative viability (Linsitinib + Vorinostat; first compound 1 µM) of the same cell line?
**A.** The relative viability was 0.386.

**Q.** What about the relative viability (Ispinesib + Bortezomib; first compound 0.001 µM) of the same cell line?
**A.** The relative viability was 0.505.

**Q.** What about the relative viability (Ispinesib + Bortezomib; first compound 0.003162 µM) of the same cell line?
**A.** Its relative viability is 0.72.

**Q.** And the relative viability (Ispinesib + Bortezomib; first compound 0.01 µM)?
**A.** Its relative viability is 0.657.

**Q.** And the relative viability (Ispinesib + Bortezomib; first compound 0.03162 µM)?
**A.** Its relative viability is 0.207.

**Q.** What about the relative viability (Ispinesib + Bortezomib; first compound 0.1 µM) of the same cell line?
**A.** Its relative viability is 0.183.

**Q.** And the relative viability (Linsitinib + Pemetrexed; first compound 0.01 µM)?
**A.** The relative viability was 0.7.

**Q.** And the relative viability (Linsitinib + Pemetrexed; first compound 0.03162 µM)?
**A.** Its relative viability is 0.771.

**Q.** And the relative viability (Linsitinib + Pemetrexed; first compound 0.1 µM)?
**A.** The relative viability was 0.817.

**Q.** What about the relative viability (Linsitinib + Pemetrexed; first compound 0.3162 µM) of the same cell line?
**A.** Its relative viability is 0.597.

**Q.** And the relative viability (Linsitinib + Pemetrexed; first compound 1 µM)?
**A.** Its relative viability is 0.776.

Reference: the supplement of paper PMC10307832
